Experimental findings from patent US8367648B2, “Substituted 16,17-annellated steroid compounds for use in womens healthcare” (MSD OSS B.V., priority 2009, dated 2013) are described below.

In data set [1] the target is T1, androgen receptor (AR) (Homo sapiens, UniProt P10275).
T1 sequence (P10275 1-920): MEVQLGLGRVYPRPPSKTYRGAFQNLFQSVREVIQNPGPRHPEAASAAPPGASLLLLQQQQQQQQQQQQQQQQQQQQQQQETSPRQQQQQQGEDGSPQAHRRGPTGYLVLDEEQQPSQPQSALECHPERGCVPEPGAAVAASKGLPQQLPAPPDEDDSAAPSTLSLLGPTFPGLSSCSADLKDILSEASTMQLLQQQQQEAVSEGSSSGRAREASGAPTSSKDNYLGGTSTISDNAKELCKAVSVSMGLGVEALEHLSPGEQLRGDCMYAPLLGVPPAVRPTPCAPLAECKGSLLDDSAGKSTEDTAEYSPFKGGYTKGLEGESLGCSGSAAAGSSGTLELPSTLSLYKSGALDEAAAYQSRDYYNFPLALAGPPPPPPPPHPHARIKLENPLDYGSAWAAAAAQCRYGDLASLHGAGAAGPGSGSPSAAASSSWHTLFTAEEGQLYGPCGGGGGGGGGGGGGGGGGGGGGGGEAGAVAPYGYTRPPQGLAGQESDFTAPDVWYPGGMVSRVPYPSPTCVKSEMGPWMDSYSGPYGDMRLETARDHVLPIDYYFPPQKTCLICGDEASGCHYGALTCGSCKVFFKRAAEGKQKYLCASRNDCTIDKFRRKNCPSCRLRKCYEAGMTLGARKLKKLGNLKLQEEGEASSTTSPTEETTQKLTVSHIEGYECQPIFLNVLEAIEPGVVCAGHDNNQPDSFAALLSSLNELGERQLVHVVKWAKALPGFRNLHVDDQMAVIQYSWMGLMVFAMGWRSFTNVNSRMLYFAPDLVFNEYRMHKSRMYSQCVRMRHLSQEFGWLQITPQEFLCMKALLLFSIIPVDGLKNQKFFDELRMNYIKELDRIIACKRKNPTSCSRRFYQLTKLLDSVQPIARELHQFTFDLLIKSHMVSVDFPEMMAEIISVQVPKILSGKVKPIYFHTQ
Description: Androgen receptor antagonism in vitro. It counts as cell-based. The note with it: antagonist; read-out: IC50 as antagonist for the androgen receptor (AR).

For data set [2], the target named is T2, progesterone receptor B (PR-B) (Homo sapiens, UniProt P06401).
T2 sequence (P06401 1-933): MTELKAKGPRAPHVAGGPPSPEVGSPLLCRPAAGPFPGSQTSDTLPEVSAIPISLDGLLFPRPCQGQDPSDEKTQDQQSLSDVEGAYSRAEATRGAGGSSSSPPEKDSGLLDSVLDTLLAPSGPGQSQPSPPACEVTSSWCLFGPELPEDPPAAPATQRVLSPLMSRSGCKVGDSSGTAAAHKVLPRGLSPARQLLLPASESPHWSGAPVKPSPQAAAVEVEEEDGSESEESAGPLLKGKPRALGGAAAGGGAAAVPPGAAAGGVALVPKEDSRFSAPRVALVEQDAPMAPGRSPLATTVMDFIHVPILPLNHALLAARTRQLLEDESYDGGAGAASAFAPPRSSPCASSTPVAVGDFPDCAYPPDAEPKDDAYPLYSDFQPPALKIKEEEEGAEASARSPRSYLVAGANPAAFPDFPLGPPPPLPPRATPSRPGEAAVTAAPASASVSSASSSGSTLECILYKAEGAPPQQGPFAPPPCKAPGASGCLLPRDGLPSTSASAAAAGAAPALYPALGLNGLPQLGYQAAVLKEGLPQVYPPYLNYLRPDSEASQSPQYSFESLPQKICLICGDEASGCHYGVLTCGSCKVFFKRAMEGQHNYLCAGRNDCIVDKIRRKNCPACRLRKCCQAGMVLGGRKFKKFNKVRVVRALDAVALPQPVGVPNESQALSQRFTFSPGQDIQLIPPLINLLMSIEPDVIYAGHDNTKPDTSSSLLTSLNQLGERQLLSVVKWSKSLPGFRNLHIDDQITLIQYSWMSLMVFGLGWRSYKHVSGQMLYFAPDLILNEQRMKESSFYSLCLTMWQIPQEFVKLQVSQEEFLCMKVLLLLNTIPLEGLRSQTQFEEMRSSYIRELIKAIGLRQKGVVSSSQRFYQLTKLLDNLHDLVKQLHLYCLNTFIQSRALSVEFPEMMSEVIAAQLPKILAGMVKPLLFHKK
Description: In vitro nuclear receptor profile, PR-B antagonism. It counts as cell-based.

In data set [3] the test system is ovulation. Description: Ovulation inhibition in intact cycling female rats. It counts as in vivo, rat.
Data set [4] concerns the target T3, ERα (Homo sapiens, UniProt P03372).
T3 sequence (P03372 1-595): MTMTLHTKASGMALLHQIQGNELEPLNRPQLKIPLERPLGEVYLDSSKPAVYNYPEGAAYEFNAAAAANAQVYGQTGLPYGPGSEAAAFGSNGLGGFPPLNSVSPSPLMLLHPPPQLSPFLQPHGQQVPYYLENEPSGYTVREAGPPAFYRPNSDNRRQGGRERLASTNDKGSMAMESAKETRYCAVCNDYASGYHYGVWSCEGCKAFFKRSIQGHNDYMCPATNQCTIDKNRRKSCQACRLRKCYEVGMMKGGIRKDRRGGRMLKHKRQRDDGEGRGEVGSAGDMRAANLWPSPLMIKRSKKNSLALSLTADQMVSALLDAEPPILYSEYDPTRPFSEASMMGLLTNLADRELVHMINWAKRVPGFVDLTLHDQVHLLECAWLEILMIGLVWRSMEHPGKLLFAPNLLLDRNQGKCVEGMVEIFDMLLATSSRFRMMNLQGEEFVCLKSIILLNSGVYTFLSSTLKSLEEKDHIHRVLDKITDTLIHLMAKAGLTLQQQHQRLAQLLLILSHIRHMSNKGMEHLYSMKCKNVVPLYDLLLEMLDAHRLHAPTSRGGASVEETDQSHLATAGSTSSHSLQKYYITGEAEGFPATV
The experiment in a line: In vitro nuclear receptor profile, ERα antagonism. To be noted: antagonist efficacy. The class given is cell-based.

Data set [5] has as its system LH/FSH, uterine tissue, vaginal tissue, cholesterol metabolism, bone. The experiment in a line: 4-week multiple dose study in ovariectomized female rats. The class given is in vivo, rat.
The target of data set [6] is ERβ (Homo sapiens, UniProt Q92731). Description: In vitro nuclear receptor profile, ERβ antagonism. The class given is cell-based.
Chain of ERβ (Q92731 whole entry): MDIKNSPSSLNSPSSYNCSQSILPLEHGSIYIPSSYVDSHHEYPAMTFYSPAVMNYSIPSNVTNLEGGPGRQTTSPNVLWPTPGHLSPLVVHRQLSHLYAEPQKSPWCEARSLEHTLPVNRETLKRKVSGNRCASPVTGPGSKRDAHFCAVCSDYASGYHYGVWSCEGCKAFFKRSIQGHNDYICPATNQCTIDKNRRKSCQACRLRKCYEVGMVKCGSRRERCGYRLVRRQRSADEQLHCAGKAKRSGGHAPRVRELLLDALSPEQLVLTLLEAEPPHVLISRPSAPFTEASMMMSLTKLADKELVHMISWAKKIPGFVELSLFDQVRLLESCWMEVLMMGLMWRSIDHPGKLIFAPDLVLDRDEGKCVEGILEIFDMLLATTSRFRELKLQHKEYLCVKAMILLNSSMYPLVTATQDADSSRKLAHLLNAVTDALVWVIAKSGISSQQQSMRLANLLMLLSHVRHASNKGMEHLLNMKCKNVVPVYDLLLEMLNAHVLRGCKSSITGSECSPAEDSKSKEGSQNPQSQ

In the case of `CCC[C@@H]1Cc2cc(O)ccc2[C@H]2CC[C@@]3(C)[C@@H](C[C@H]4CCC(=O)C[C@]43O)[C@H]12` [Compound 10, (7α,16β,17α)-3,17-dihydroxy-7-propyl-16,24-cyclo-19,21-dinorchola-1,3,5(10)-trien-22-one], the half-maximal inhibitory concentration (IC50) (in general, the point on the concentration scale where inhibition reaches its midpoint) in data set [1] was 125 nM; in data set [2] (antagonist mode, read-out: PR-B ant IC50), 3.7 nM; in data set [6] (antagonist mode, read-out: ERβ ant IC50), 8.4 nM. In data set [2] (antagonist efficacy), this compound registered a PR-B ant anteff of 0.55. In data set [3] (intact regularly cycling female rats), the “minimal active dose (MAD) to inhibit ovulation” value is reported as 0.1 mg/kg per day. In data set [3] (rat, p.o.), the “Ovulation Inhibition (rat) MAD p.o.” value came to 0.10 mg/kg · day. The ERα ant anteff in data set [4] worked out at 0.47. Besides, the “behaviour on vaginal tissue, cholesterol metabolism and bone (bone mineral density, osteocalcin)” value in data set [5] is “behaves as an estrogen receptor agonist”. In addition, the “circulating levels of LH and FSH” value in data set [5] (4 weeks, oral and subcutaneous in gelatine/mannitol) was “effectively suppress”. The “stimulation of rat uterine tissue (uterine weight)” value in data set [5] (daily oral dosing for 4 weeks, FIG. 1) is “only mildly stimulates”. Besides, the “activity at ERβ in words” value in data set [6] is “full antagonist”. The compound also came in with an ERβ ant anteff in data set [6] (antagonist efficacy) of 0.83.
